# Test results published in US20180105840A1, “PROCESS FOR INDUSTRIAL PRODUCTION OF CHIRAL-1,1-DIFLUORO-2-PROPANOL” (PUBLIC UNIVERSITY CORPORATION TOYAMA PREFECTURAL UNIVERSITY, priority 2015, published 2018).
# Tested on: Ogataea polymorpha strain NBRC0799-derived carbonyl reductase
# Test: Reactivity of purified Ogataea polymorpha strain NBRC0799-derived carbonyl reductase to substrates (reduction reaction, NADH decrease at 340 nm)
# Type: biochemical
# Settings: (a) Reduction reaction; substrate 50 mM, NADH 0.1 mM, 168 mM sodium phosphate buffer pH 6.0, 30° C.; enzyme activity with acetone as substrate defined as 100%
# Experimental: For enzyme activity measurement, NADH was added at a final concentration of 0.1 mM to 168 mM sodium phosphate buffer (pH 6.0) containing an enzyme or a microorganism, and 1,1-difluoroacetone was added at a final concentration of 50 mM to this reaction solution to initiate the reaction (reaction solution volume: 1 mL). The reaction was conducted at 30° C., and decreases in NADH were monitored with a spectrophotometer (V-630BIO, JASCO Corporation, Japan) as changes in absorbance at 340 nm. It should be noted that the enzyme activity was determined assuming that the amount of enzyme required to catalyze the oxidation of 1 μmol NADH per minute was defined as 1 U (unit).
# To 168 mM sodium phosphate buffer (pH 6.0) containing the enzyme purified from Ogataea polymorpha strain NBRC0799, NADH was added at a final concentration of 0.1 mM, and the substrates indicated in Table B below were each added at a final concentration of 50 mM to this reaction solution to initiate the reaction (reaction solution volume: I mL). The reaction was conducted at 30° C., and decreases in NADH were measured with a spectrophotometer (V-630BIO, JASCO Corporation, Japan) as changes in absorbance at 340 nm.
# Relative activity refers to the ratio of enzyme activity (conversion speed) for each substrate in comparison with the enzyme activity when using acetone as a substrate, which is defined to be 100%. When 1,1-difluoroacetone or 1,1,1-trifluoroacetone is provided as a substrate, the conversion speed per se of the enzyme is reduced (many hours are required to complete the reaction). In the case of acetone, its two methyl groups are equal, so that acetone will be captured by a recognition site in the enzyme without distinction between these two methyl groups. However, in the case of 1,1-difluoroacetone and 1,1,1-trifluoroacetone, their capture by an active site in the enzyme would require recognition between a fluoromethyl group and a methyl group, so that the speed of their capture becomes slower. On the other hand, in the case of 1,3-difluoroacetone, the fluorine atoms introduced thereinto would alter electronegativity and so on, when compared to acetone.
row,SMILES,Relative Activity (%)
1,CCC=O [Propionaldehyde],141
2,CCCC=O [Butyraldehyde],193
3,"CC(=O)C(F)(F)F [1,1,1-Trifluoroacetone]",50
4,"CC(C)=O [Acetone, reference compound]",100
5,"O=C(CF)CF [1,3-Difluoroacetone]",52
6,"CC(=O)CC(F)(F)F [4,4,4-Trifluoro-2-butanone]",228
7,CCC(C)=O [2-Butanone],132
8,"CC(=O)C(F)F [1,1-Difluoroacetone]",58
9,CC=O [Acetaldehyde],330
10,CC(=O)CF [Fluoroacetone],211

# Same assay, conditions: substrate 50 mM, NADH 0.1 mM, pH 6.0, 30° C.
row,SMILES,conversion speed of the enzyme in comparison with acetone as a substrate
1,"CC(=O)C(F)(F)F [1,1,1-Trifluoroacetone]",reduced
2,"CC(=O)C(F)F [1,1-Difluoroacetone]",reduced
